Experimental data published in ChEMBL document CHEMBL1150478, “Synthesis and in vitro antiandrogenic activity of 17-hydroxy-17-(-hydroxy/haloalkyn-1-yl)-4-methyl-4-aza-3-oxo-5-androstan-(1-ene)-3-ones” (Bioorg Med Chem Lett, 1995).

Columns and labels:
[1] = Concentration required for inhibition of 5-alpha-Dihydrotestosterone (DHT) stimulated shionogi cell proliferation was determined; assay type: functional; conditions: Mus musculus
[2] = Concentration required for inhibition of 5-alpha-Dihydrotestosterone (DHT) stimulated shionogi cell proliferation was determined; No activity was observed at 1 uM; assay type: functional; conditions: Mus musculus

SMILES	IC50 [1]	IC50 [2]
CN1C(=O)CC[C@]2(C)C3CC[C@@]4(C)C(CC[C@@]4(O)C#CCCCBr)C3CCC12 (some centres not stated)	325 nM	–
CN1C(=O)CC[C@]2(C)C3CC[C@@]4(C)C(CC[C@@]4(O)C#CCCBr)C3CCC12 (some centres not stated)	279 nM	–
CN1C(=O)C=C[C@]2(C)C3CC[C@@]4(C)C(CC[C@@]4(O)C#CCCO)C3CCC12 (some centres not stated)	–	> 1000 nM
CN1C(=O)CC[C@]2(C)C3CC[C@@]4(C)C(CC[C@@]4(O)C#CCCCO)C3CCC12 (some centres not stated)	–	> 1000 nM
CN1C(=O)C=C[C@]2(C)C3CC[C@@]4(C)C(CC[C@@]4(O)C#CCCCI)C3CCC12 (some centres not stated)	179 nM	–
CN1C(=O)CC[C@]2(C)C3CC[C@@]4(C)C(CC[C@@]4(O)C#CCCCCl)C3CCC12 (some centres not stated)	129 nM	–
CN1C(=O)CC[C@]2(C)C3CC[C@@]4(C)C(CC[C@@]4(O)C#CCCI)C3CCC12 (some centres not stated)	160 nM	–
CN1C(=O)CC[C@]2(C)C3CC[C@@]4(C)C(CC[C@@]4(O)C#CCCCI)C3CCC12 (some centres not stated)	328 nM	–
CN1C(=O)C=C[C@]2(C)C3CC[C@@]4(C)C(CC[C@@]4(O)C#CCCCCl)C3CCC12 (some centres not stated)	67.2 nM	–
CN1C(=O)C=C[C@]2(C)C3CC[C@@]4(C)C(CC[C@@]4(O)C#CCCCBr)C3CCC12 (some centres not stated)	149 nM	–
CN1C(=O)C=C[C@]2(C)C3CC[C@@]4(C)C(CC[C@@]4(O)C#CCCBr)C3CCC12 (some centres not stated)	142 nM	–
CN1C(=O)C=C[C@]2(C)C3CC[C@@]4(C)C(CC[C@@]4(O)C#CCCI)C3CCC12 (some centres not stated)	96.8 nM	–
CN1C(=O)C=C[C@]2(C)C3CC[C@@]4(C)C(CC[C@@]4(O)C#CCCCO)C3CCC12 (some centres not stated)	–	> 1000 nM
CN1C(=O)CC[C@]2(C)C3CC[C@@]4(C)C(CC[C@@]4(O)C#CCCO)C3CCC12 (some centres not stated)	–	> 1000 nM
CN1C(=O)C=C[C@]2(C)C3CC[C@@]4(C)C(CC[C@@]4(O)C#CCCCl)C3CCC12 (some centres not stated)	94.5 nM	–
CN1C(=O)CC[C@]2(C)C3CC[C@@]4(C)C(CC[C@@]4(O)C#CCCCl)C3CCC12 (some centres not stated)	250 nM	–
CC(C)(O)C(=O)Nc1ccc([N+](=O)[O-])c(C(F)(F)F)c1 [HYDROXYFLUTAMIDE]	52.5 nM	–
